Assay results from US12686664B2, “SOCE inhibitors and therapeutic uses thereof” (Institut National de la Santé et de la Recherche Médicale …, priority 2020, dated 2026).
Where two headings read alike, the source gives them in different places.

How the values were obtained:
Assay type in all cases: cell-based
[1] = system: store-operated Ca^2+ entry in PLP-B lymphocytes; assay: Store-operated Ca2+ entry after thapsigargin depletion of ER Ca2+ stores in PLP-B lymphocytes; conditions: for inhibition at 0.1 µM / inhibition at 1 µM / inhibition at 10 µM / inhibition at 50 µM / inhibition at 100 µM: PLP-B lymphocytes, % of inhibition (−) or activation
Method: (§1) The effects of the molecules developed were tested on PLP-B lymphocytes. Store-operated Ca^2+ entry was induced by depletion of Endoplasmic Reticulum Ca^2+ stores (ER Ca^2+ stores) with thapsigargin (Tg) in a Ca^2+-free medium and measured following the addition of 1.8 mM of CaCl2) in the extracellular medium. The results are compared to the results obtained for known SOCE inhibitors SKF-96365, GSK-7975A, Synta 66.

[2] = system: store-operated Ca^2+ entry in HEK 293; assay: Store-operated Ca2+ entry in HEK 293 cell line; conditions: for Effect on amplitude of SOCE peak: % of inhibition (−) or activation
Method: as §1
(§2) Then, effects of the molecule that gave the best results in this test (i.e., molecule 6αa) were assessed in two cancer cell lines, namely: HEK 293 and HEK 651 HS1 tumor cell lines.

[3] = system: store-operated Ca^2+ entry in HEK 651 HS1; assay: Store-operated Ca2+ entry in HEK 651 HS1 cell line; conditions: for Effect on amplitude of SOCE peak: % of inhibition (−) or activation
Method: as §1, §2

SOCE in JOK B cells = assay: Intracellular calcium levels / SOCE in JOK B cells (Fura-2AM, FlexStation 3)
Method: Intracellular calcium levels were monitored at 37° C. using the FlexStation 3™ (Molecular Devices, Berkshire, UK), a fluorescence plate reader measuring time-resolved intracellular Ca^2+ concentration in a 96-well format with cells loaded with the dual-wavelength fluorescent calcium-sensitive dye Fura-2AM.
Intracellular Ca^2+ stores were depleted with 2 μM Thapsigargin (an inhibitor of ER SERCA pumps) under Ca^2+-free conditions to determine the magnitude of intracellular Ca^2+ release. Next, the cells were returned to Ca^2+-containing Hepes-buffered solution to measure SOCE. The magnitude of SOCE was estimated as the maximal values of normalized fluorescence ratio following Ca^2+ re-addition.

JOK cells [4] = assay: JOK cell viability and apoptosis assays (LIVE/DEAD, Annexin V-FITC/PI)
Method: Cell Viability Assays. JOK cells were treated with test compounds (GSK-7975-A, SKF-93365 and 6αa) or solvent for 48 hours. JOK cells viability was then assessed using LIVE/DEAD cell viability assays kit (Abcam). Differentially labeled live and dead cells with fluorescent dyes are analyzed by flow cytometry.
Apoptosis Assay. Apoptosis of JOK cells were determined by Annexin V-FITC/PI staining (Biolegend) using flow cytometry. The percentage of annexin V-FITC and propidium iodide-[…] cells were assessed using Kaluza 1.3.

HUVEC cells = assay: HUVEC cell death (Annexin/Propidium Iodide, flow cytometry); conditions: HUVEC (FIG. 8)
Method: FIG. 8. In vitro Effects of 6αa, GSK-7975-A and SKF-93365 on HUVEC Cell Death. […] Cell death was analyzed by flow cytometry following Annexin/Propidium Iodide labeling. Percentages of living cells, necrotic cells and apoptotic cells submitted to GSK-7975A (A), SKF-93365 (B), and 6αa (DAD 3-473) (C) treatment were normalized to the DMSO treatment conditions. Histograms present the amounts of apoptotic cells (annexin/PI positive cells) detected in each experimental condition after treatment with GSK-7975A (D), SKF-93365 (E), and 6αa (DAD 3-473) (F). Data are expressed as mean±SEM of n observations (n=2). Data are analyzed with non parametric Mann Withney analysis, *P<0.05, **P<0.01 and ***P<0.001.

JOK cells [5] = assay: Migration of JOK cells through HUVEC in transwells; conditions: 5 or 20 μM
Method: Migration Protocol. Migration chambers (transwells) (Transwell 5.0 m polycarbonate membrane Costar) were coated overnight (37° C., 5% CO2) with 100 μL of fibronectine solution containing BSA (1 mg/ml) and LHC Basal Medium. Primary HUmbilical Vein Endothelial Cells (HUVEC) were seeded in each transwell (100 000/well) and cultured for 24 hours (37° C., 5% CO2). To evaluate B cell migration, JOK cells were added (300 000/well) to each transwell upper chamber containing RPMI 1640 medium (BioWest) containing 0.5% BSA and SDF1 (200 ng/ml) was added in the bottom chamber. Cells were cultures in the presence or absence of a test compound (GSK-7975-A, SKF-93365 and 6αa) or solvent. After 24 hours (37° C., 5% CO2), migrated cells were collected in the bottom chambers and counted by flow cytometry. The percentages of migration were calculated for each experimental collection.

PANC-1 cells [6] = assay: PANC-1 cell proliferation (Cell Titer kit); conditions: 5 and 20 μM, 24 hours, to a greater extent than GSK-7975A and SKF-93365
Method: Analysis of Cell Proliferation. For PANC-1 cell proliferation and cell cytotoxicity measurements, […] were seeded in 96 well-plates in 100 μL of DMEM medium. Cells were incubated for 24 hours at 37° C. with 3 different SOCE inhibitors (GSK-7975-A, SKF-93365 and 6αa) at 2 different concentrations (5 and 20 μM) compared to DMSO and untreated cells. Cell proliferation was evaluated using the Cell Titer kit proliferation assay (Promega). Cytotoxicity was evaluated using the Cell Tox green cytotoxicity assay (Promega). All the kits were used following manufacturer recommendations and using a plate reader.

PANC-1 cells [7] = assay: PANC-1 cell apoptosis (AnnexinV-FiTC/PI, flow cytometry); conditions: even at a concentration of 5 μM
Method: Analysis of Cell Apoptosis. For PANC-1 cell apoptosis measurements, 5×10^6 cells were seeded in 12 well-plates. Cells were incubated for 24 hours with a test compound (GSK-7975-A, SKF-93365 and 6αa) at two different concentrations (5 and 20 μM) compared to DMSO and untreated cells at 37° C. After washing, cells were taken off plates using an enzyme-free solution. Cells were centrifuged for 5 minutes at 1500 rpm and suspended in […] of PBS containing 1 μL of AnnexinV-FiTC and 1 μL of propidium iodide (PI) for 15 minutes at room temperature in the dark. Evaluation of Annexin and PI staining was performed using a flow cytometer (Navios, Beckman Counter) to evaluate cell apoptosis and necrosis.

[8] = Lymphocyte, DMSO control 100%, read-out: Effect on amplitude of SOCE Peak
[9] = Lymphocyte, thapsigargin (Tg) peak, read-out: Effect on amplitude of Tg Peak

COc1ccc(CCOc2ccc(CCn3cnc4ccccc43)cc2)cc1 [6αa DAD 3-473, 1-[4-(4-Methoxyphenethoxy)phenethyl]-1H-benzo[d]imidazole]
inhibition at 0.1 µM [1, 8]: 3%
inhibition at 0.1 µM [1, 9]: -5%
inhibition at 1 µM [1, 8]: -2%
inhibition at 1 µM [1, 9]: -7%
inhibition at 10 µM [1, 8]: 24%
inhibition at 10 µM [1, 9]: 5%
inhibition at 50 µM [1, 8]: 79%
inhibition at 50 µM [1, 9]: 5%
inhibition at 100 µM [1, 8]: 81%
inhibition at 100 µM [1, 9]: 2%
IC50 ([1]; Lymphocyte, SOCE in PLP-B lymphocytes, average of three assays, ±0.5 μM): 15.4 µM
effectiveness as modulator that inhibits SOCE without inhibiting Ca2+ release from ER stores ([1]; comparison of the series tested): best candidate
Effect on amplitude of SOCE peak ([2]; 1 μM): 8%
Effect on amplitude of SOCE peak ([2]; 5 μM): −15%
Effect on amplitude of SOCE peak ([2]; 10 μM): −73%
Effect on amplitude of SOCE peak ([2]; 50 μM): −91%
IC50 ([2]; Homo sapiens, HEK293, average of three assays, ±0.5 μM): 5.1 µM
Effect on amplitude of SOCE peak ([3]; 5 μM): −5%
Effect on amplitude of SOCE peak ([3]; 10 μM): −35%
Effect on amplitude of SOCE peak ([3]; 50 μM): −86%
IC50 ([3]; average of three assays, ±0.5 μM): 25 µM
amplitude of Ca2+ release from the endoplasmic stores (SOCE in JOK B cells): not found to be significantly affected
amplitude of SOCE (SOCE in JOK B cells; 5 and 20 μM, compared to control, irrespective of incubation time (5, 15, 30 minutes, 1 hour)): significantly reduces
death of B cells (JOK cells [4]; JOK B cells (FIG. 7)): does not induce death
apoptosis or necrosis of cells (JOK cells [4]; JOK B cells (FIG. 7), 5 or 20 μM, treated for 48 hours): do not induce apoptosis or necrosis
cell survival (JOK cells [4]; JOK cells): without significant reduction
death of HUVEC cells (HUVEC cells): does not induce death
apoptosis or necrosis of cells (HUVEC cells; 5 or 20 μM, treated for 48 hours): do not induce apoptosis or necrosis
transendothelial migration through HUVEC of JOK cells (JOK cells [5]): does significantly inhibit
PANC-1 proliferation (PANC-1 cells [6]): significantly reduces
PANC-1 cell death by apoptosis (PANC-1 cells [7]): induces PANC-1 cells by apoptosis
